In patent US12723063B2, “GIPR-agonist compounds” (Eli Lilly and Company, priority 2019, dated 2026):
pKi: −log10 of the molar value. *1 amine or outer side, *2 acyl side, *3 side chain or, on linkers, in order; H or OH if unused. Where a SMILES comes first, the peptide text is derived from it. Side-chain parts run from the residue outwards. [ ]: non-standard residue; d: D form. The star is where a group is joined. C20 diacid = O=C(O)CCCCCCCCCCCCCCCCCCC(=O)*; γGlu = O=C(O)[C@H](CCC(=O)[*:2])N[*:1]; 4Pal = N[C@@H](Cc1ccncc1)C(=O)O; αMeL = CC(C)C[C@](C)(N)C(=O)O; AEEA = NCCOCCOCC(=O)O; Aib = CC(C)(N)C(=O)O

Biological target: T1, human GcgR (Homo sapiens, UniProt P47871)
T1 construct: expressed in transfected cells; crude membranes
Experiment: [125I]-Glucagon binding, SPA with WGA beads, 0.1% bacitracin
Settings: geometric mean, read-out: hGcgR Ki
In short: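 SPA competition binding with WGA beads on crude membranes from HEK293 cells stably expressing hGcgR. Buffer: 25 mM HEPES pH 7.4, 2.5 mM CaCl2, 1 mM MgCl2, 0.1% bacitracin, 0.003% Tween-20; 10-point 3-fold dilutions, NSB with 1 μM Gcg.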

T1 sequence (P47871 26-477): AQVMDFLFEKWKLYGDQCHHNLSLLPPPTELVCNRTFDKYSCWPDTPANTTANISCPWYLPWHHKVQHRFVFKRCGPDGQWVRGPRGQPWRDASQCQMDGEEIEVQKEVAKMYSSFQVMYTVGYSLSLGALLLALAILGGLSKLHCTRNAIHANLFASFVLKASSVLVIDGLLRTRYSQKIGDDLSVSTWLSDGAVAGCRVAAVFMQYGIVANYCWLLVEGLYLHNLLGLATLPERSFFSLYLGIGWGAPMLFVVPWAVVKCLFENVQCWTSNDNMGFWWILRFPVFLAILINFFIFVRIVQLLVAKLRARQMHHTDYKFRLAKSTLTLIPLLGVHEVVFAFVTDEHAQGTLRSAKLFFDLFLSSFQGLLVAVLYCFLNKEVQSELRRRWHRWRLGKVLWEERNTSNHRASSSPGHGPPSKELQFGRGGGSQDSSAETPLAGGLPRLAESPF

| SMILES | pKi |
| --- | --- |
| CC[C@H](C)[C@H](NC(=O)[C@H](Cc1ccccc1)NC(=O)[C@@H](NC(=O)CNC(=O)[C@H](CCC(=O)O)NC(=O)C(C)(C)NC(=O)[C@@H](N)Cc1ccc(O)cc1)[C@@H](C)O)C(=O)N[C@@H](CO)C(=O)N[C@@H](CC(=O)O)C(=O)N[C@@H](Cc1ccc(O)cc1)C(=O)N[C@@H](CO)C(=O)N[C@H](C(=O)N[C@@](C)(CC(C)C)C(=O)N[C@@H](CC(C)C)C(=O)N[C@@H](CC(=O)O)C(=O)N[C@@H](CCCCN)C(=O)N[C@@H](CCCCNC(=O)COCCOCCNC(=O)COCCOCCNC(=O)CC[C@H](NC(=O)CCCCCCCCCCCCCCCCCCC(=O)O)C(=O)O)C(=O)N[C@@H](Cc1c[nH]cn1)C(=O)N[C@@H](CCC(N)=O)C(=O)NC(C)(C)C(=O)N[C@@H](CC(=O)O)C(=O)N[C@@H](Cc1ccccc1)C(=O)N[C@H](C(=O)N[C@@H](CCC(=O)O)C(=O)N[C@@H](Cc1ccncc1)C(=O)N[C@@H](CC(C)C)C(=O)N[C@@H](CC(C)C)C(=O)N[C@@H](CCC(=O)O)C(=O)NCC(=O)NCC(=O)N1CCC[C@H]1C(=O)N[C@@H](CO)C(=O)N[C@@H](CO)C(=O)NCC(=O)N[C@@H](C)C(=O)N1CCC[C@H]1C(=O)N1CCC[C@H]1C(=O)N1CCC[C@H]1C(=O)N[C@@H](CO)C(N)=O)C(C)C)[C@@H](C)CC [Example 47] (H-Y[Aib]EGTFISDYSI[αMeL]LDKK([AEEA-AEEA-γGlu-C20 diacid])HQ[Aib]DFVE[4Pal]LLEGGPSSGAPPPS-NH2) | 6.76 |
| CC[C@H](C)[C@H](NC(=O)[C@H](Cc1ccccc1)NC(=O)[C@@H](NC(=O)CNC(=O)[C@H](CCC(=O)O)NC(=O)C(C)(C)NC(=O)[C@@H](N)Cc1ccc(O)cc1)[C@@H](C)O)C(=O)N[C@@H](CO)C(=O)N[C@@H](CC(=O)O)C(=O)N[C@@H](Cc1ccc(O)cc1)C(=O)N[C@@H](CO)C(=O)N[C@H](C(=O)N[C@@](C)(CC(C)C)C(=O)N[C@@H](CC(C)C)C(=O)N[C@@H](CC(=O)O)C(=O)N[C@@H](CCCCN)C(=O)N[C@@H](CCCCNC(=O)COCCOCCNC(=O)COCCOCCNC(=O)CC[C@H](NC(=O)CCCCCCCCCCCCCCCCCCC(=O)O)C(=O)O)C(=O)N[C@@H](Cc1c[nH]cn1)C(=O)N[C@@H](CCC(N)=O)C(=O)NC(C)(C)C(=O)N[C@@H](CCC(=O)O)C(=O)N[C@@H](Cc1ccccc1)C(=O)N[C@H](C(=O)N[C@@H](CCC(=O)O)C(=O)N[C@@H](Cc1ccc(O)cc1)C(=O)N[C@@H](CC(C)C)C(=O)N[C@@H](CC(C)C)C(=O)N[C@@H](CCC(=O)O)C(=O)N[C@H](C(=O)NCC(=O)N1CCC[C@H]1C(=O)N[C@@H](CO)C(=O)N[C@@H](CO)C(=O)NCC(=O)N[C@@H](C)C(=O)N1CCC[C@H]1C(=O)N1CCC[C@H]1C(=O)N1CCC[C@H]1C(=O)N[C@@H](CO)C(N)=O)[C@@H](C)O)C(C)C)[C@@H](C)CC [Example 64] (H-Y[Aib]EGTFISDYSI[αMeL]LDKK([AEEA-AEEA-γGlu-C20 diacid])HQ[Aib]EFVEYLLETGPSSGAPPPS-NH2) | 6.71 |
